Results taken from a melting point compilation (Tetko et al.; mined from patent text by program, amines drawn as free bases though some values may be those of a salt).

melting point	SMILES
268 to 272 °C	CC(=O)NCc1c(O)cc2c3c(cccc13)C(=O)N(O)C2=O
77 to 79 °C	Cc1nnc(-c2nnc(SCCC(F)=C(F)F)o2)o1
63 to 64 °C	CCN(SCc1nccs1)C(=C[N+](=O)[O-])SC
228 to 230 °C	CS(=O)(=O)Cc1cc(N)ccc1N1C(=O)c2ccc(Cl)cc2C1=O
> 280 °C	NNc1nc(Cl)nc2ccccc12
215 °C	CC(=O)Nc1coc2ccc(C(C)(C)C)cc2c1=S
140 to 142 °C	O=C(O)CNC(=O)CSC(=O)c1ccccc1
148 to 151 °C	CCC(=O)NCC1CC1c1cccc2nc(C(F)(F)F)cn12 (centres undefined)
180 °C	N#Cc1cc([N+](=O)[O-])ccc1Oc1ccc(C(=O)c2ccccc2)cc1
211 to 213 °C	C=CCN(CC=C)c1nc(N)n2oc(=O)nc2n1
245 to 247 °C	CCc1nc2c(N)nc3cc(-c4cccnc4)ccc3c2n1CC(C)(C)O
138 to 143 °C	O=c1[nH]ncc2[nH]c(-c3ccc(OC(F)F)c(OC4CC4)c3)c(-c3ccccc3)c12
144 to 146 °C	COc1ccc([C@@H]2CN(C)CC[C@@H]2NC(=S)c2ccc(C)cc2)cc1OC (relative stereo)
79 to 80 °C	CCCCCCCCCCCCc1csc(-c2c(Cl)c(Cl)c(-c3cc(CCCCCCCCCCCC)cs3)c3nsnc23)c1
68 to 70 °C	C/C=C/[C@H](O)C[C@]1(C)CCc2c(C)c(OCc3ccccc3)c(C)c(C)c2O1
242 °C	O=C(N[C@H]1CC[C@H](CCN2CCN(c3nccc4c3OCC4)CC2)CC1)c1ccc(N2CCOCC2)cc1
215 to 218 °C	CC(C)c1ccc(S(=O)(=O)c2ccccc2)cc1S(=O)(=O)NC1CCN(C(=O)c2cccc(F)c2)CC1
179 to 180 °C	COCCc1nc2c(N)nc3ccccc3c2n1CCCNC(=O)NC1CCCCC1
61 to 62 °C	CCOC(=O)c1cnc2ccc(C3CCCCCC3)cc2c1Cl
70 to 75 °C	COc1ccc(F)cc1C(C)(C)CC(O)(Cc1cccc(C(N)=O)c1)C(F)(F)F (centres undefined)
49 to 51 °C	CCCN(CCC)c1ccc(Cl)nn1
160 to 161 °C	Fc1cccc2onc(Nc3ccncc3)c12
146 to 147 °C	COc1ccc2c(c1)C(C)(C)NC2=O
140 °C	CCCc1nnc(-c2ccc([N+](=O)[O-])cc2)n1-c1ccc(OC)cc1
146 °C	CCc1cc(OCCCN(C)Cc2ccc(OC)c(OC)c2)ccc1NC(=O)c1cccc2c(=O)c3cccc(F)c3[nH]c12
75 to 76 °C	CCc1cc(-n2cncn2)ncn1

Continued, compound first:

SMILES	melting point
CCn1cc(-c2ccc([C@H](C)N3CC[C@](CC(C)(C)O)(c4ccccc4)OC3=O)cc2)ccc1=O	167 to 168 °C
NC(=O)NN=C1CC(O)C(C=Cc2ccccc2)=C1CCCCCCC(=O)O (centres undefined)	208 to 210 °C
COc1ccc2c(c1)C(=O)c1ccccc1C2	94.5 to 97.5 °C
CC(C)Sc1cc2c(cc1Cl)N=C(CCl)NS2(=O)=O	248 to 250 °C
CCCCC(C)(C)C(O)CCN1C(=O)NC(=O)C1CCCCCCC(=O)O (centres undefined)	90 to 98 °C
CCn1c(C(O)(Cc2ccccc2)Cc2ccccc2)nc(-c2ccncc2)c1-c1ccc(Cl)cc1	116 to 117 °C
COC(=O)c1ccc(C(=O)CC(=O)c2ccc3c(c2)C(C)(C)CCC3(C)C)cc1	128 °C
O=C1c2ccccc2C(O)N1CCSc1ccncc1 (centres undefined)	112 °C
CSc1ccccc1C(=O)CBr	81 to 82 °C
CC(C)C(=O)Oc1ccc2c(c1Cl)Sc1ccccc1N2C	147 °C
Cc1csc(COc2nn3c(-c4ccccc4)nnc3cc2-c2ccccc2)n1	177 °C
Cn1ccnc1S[Si](C)(C)C	49 to 52 °C
COc1cc(C(C)(C)C)c(OC(C)=O)c(C(C)(C)C)c1CC(C)=O	133 °C
COC(=O)c1ccc(OC)cc1Oc1cc(Cl)ccc1[N+](=O)[O-]	121 to 123 °C
CN(C)S(=O)(=O)c1ccc(C#N)c(C(F)(F)F)c1	133 to 136 °C
Cc1ccc(S(=O)(=O)Nc2ccccc2C(=O)NCCc2ncc[nH]2)cc1	173 to 181 °C
COc1cc(Nc2c(C#N)cnc3cc4cc(OC)c(OCCN5CCC(O)CC5)cc4cc23)c(Cl)cc1Cl	150 to 160 °C

SMILES	melting point
O=C(O)c1cccc(COc2ccccc2Cl)c1COc1ccccc1Cl	107 to 109 °C
CCCCCCCCS(=O)(=O)NC(Cc1cc2c(N)nccc2s1)C(=O)N1CCC(C)CC1 (centres undefined)	101 to 112 °C
CCCNC(=O)Nc1ccc(C(=O)OC)c(NC(=O)NC(C)C)c1	94 to 95 °C
COc1ccc(CNC(=O)c2cn3c(=O)n(Cc4ccccc4)c(=O)c(C)c3s2)cc1	160 to 162 °C
CCN(C(=O)n1oc(C)c(Cl)c1=O)c1ccc(Cl)cc1Cl	101 to 102 °C
CN(C(N)=O)c1nc(Cl)nc(Cl)n1	172 to 174 °C
C=CCOc1ccc(CCNC(=O)NC)cc1OC	81 to 83 °C
NS(=O)(=O)c1nc2ccc(OCC3CO3)cc2s1 (centres undefined)	149 to 152 °C
CC=CC=CCOC(=O)C1=C(C)NC(C)=C(C(=O)OC)C1c1cccc([N+](=O)[O-])c1 (centres undefined)	135 to 136 °C
CC(=NO)c1c(C#N)nn(-c2c(Cl)cc(C(F)(F)F)cc2Cl)c1N	105 to 110 °C
COCc1cc2c(NC(=S)N3Cc4ccccc4CC3CCO)cccc2cn1 (racemic)	152 °C
CCOC(=O)CN1C(=O)COc2cc(F)ccc21	90 to 91.5 °C
CCC(CC(=O)NC(=O)OC(C)(C)C)Nc1ccc(OC)cc1 (centres undefined)	65 to 66 °C
COC(=O)Nc1nc2cc(F)c(OC(C)c3c(Cl)cccc3Cl)cc2[nH]1 (centres undefined)	240 to 245 °C
CCCCCCCCCCCCCCCCCCNC(=O)NCCCCCCN	123 to 168 °C
CS(=O)(=O)OCc1cc(-c2ccc3c(c2)CCO3)nn(Cc2ccccc2Cl)c1=O	118 to 119 °C
